According to patent US8258256B2, “Compositions and methods for the treatment of cancer” (The Johns Hopkins University, priority 2006, dated 2012):
Values belong to the compound of their own block, whether it stands above or below them. Bridge positions count the residues as written; N and C are the ends. Primed or numbered codes have the meaning given here. Ends that are not written are not given here. Peptide text beside a SMILES is read from it. I, II: the chains in the order shown. * marks the point of attachment. Biotin = O=C1N[C@H]2[C@H](CS[C@H]2CCCCC(=O)*)N1; FITC′ = fluorescein isothiocyanate label

Key:
PSMA = target: T1, PSMA (Homo sapiens, UniProt Q04609); assay: Soluble biotinylated peptide binding to immobilized PSMA or BSA; details: biotinylated peptide incubated with immobilized PSMA (0.625 μgs) or BSA
T1 construct: made in house; host or cells: Drosophila Schneider's S2 cells, vector pMT/BiP/V5-HisA (pMT-His-PSMA), purified from conditioned media on Ni-NTA
Protocol: FIGS. 3A-B depict (A) Soluble […] (Biotin) (SEQ ID NO: 37) peptide binding to BSA and PSMA. Recombinant PSMA (0.625 μgs) and BSA (25 μgs/ml) were immobilized and indicated concentrations of the biotinylated […] (SEQ ID NO:1) peptide were incubated with immobilized PSMA or BSA. […] (B) Comparison of PSMA binding to monomeric (SEQ ID NO: 37) and dimeric (core peptide disclosed as SEQ ID NO: 1) form of the […] (SEQ ID NO:1) peptide. Biotin labeled monomeric and dimeric peptide were immobilized on streptavidin-coated plates then incubated with His-PSMA (100 nM). Results are the mean binding in 4 replicate wells each ±S.D.
Soluble Synthetic […] (SEQ ID NO:1) peptide binds selectively to PSMA—On the basis of the phage binding results, the […] (SEQ ID NO:1) peptide was synthesized with biotin coupled to the C-terminus.

His-PSMA [1] = target: T2, His-PSMA (Homo sapiens, UniProt Q04609); assay: PSMA enzymatic assay (NAALADase activity, 3H-NAAG hydrolysis); assay type: biochemical; details: ratio of inhibitory potency, dimeric vs monomeric peptide
T2 construct: made in house; host or cells: Drosophila Schneider's S2 cells, vector pMT/BiP/V5-HisA (pMT-His-PSMA), purified from conditioned media on Ni-NTA
Protocol: FIG. 4 depicts the inhibition of NAALADase activity of PSMA by monomeric and dimeric peptides. His-PSMA hydrolysis of ^3H-NAAG was assayed as described in the methods in the absence or presence of indicated concentration of monomeric or dimeric peptide. After 15 min incubation at 37° C. amount of released 3H-Glu was determined. Percent inhibition is the ratio of amount of 3H-Glu released in presence of peptide compared to control (i.e. His-PSMA only). Data plotted are average of duplicate experiments and best fit line is included.
(§1) PSMA Enzymatic Assay The enzymatic activity assay for PSMA was adapted as previously described by Tiffany et al. (21). PSMA (5 nM) incubated with or without peptides was added to PSMA assay buffer (10 mM CoCl2, 50 mM Tris, pH 7.4). Following a 30 mins incubation at 37° C., N-acetyl-aspartyl-3H glutamate (3H-NAAG) (NEN, Boston, Mass.) was added to final concentration of 25 nM and reactions incubated for 15 mins at 37° C. Data were collected during linear phase of hydrolysis (i.e. less than 20% cleavage of total substrate).

[2] = target: T3, full length membrane bound form of PSMA (Homo sapiens, UniProt Q04609); assay: NAAG hydrolysis assay with cell lysates from PSMA-producing LNCaP; assay type: biochemical; details: peptide at 60 μM
T3 construct: endogenous in cells; host or cells: LNCaP cell lysate
Protocol: as §1
[…] (SEQ ID NO:1) peptide inhibits PSMA's enzyme activity—Functionally, PSMA has been classified as a glutamate carboxypeptidase II (25) with activity as both an N-acetylated α-linked acidic dipeptidase (NAALADase) (26) and as a pteroyl poly-γ-glutamyl carboxypeptidase (i.e. folate hydrolase) (27). […] Therefore, the monomeric and dimeric […] (SEQ ID NO:1) peptides were incubated initially with PSMA for 30 mins and then ^3H NAAG substrate was added to prevent any NAAG hydrolysis before the peptide is able to bind to PSMA. Control peptides included the […] (SEQ ID NO: 22) peptide and a short peptide HHWA (SEQ ID NO: 26) containing the apparent consensus motif from the phage display. […] In a second experiment, cell lysates from PSMA-producing LNCaP were used instead of purified recombinant His-PSMA.

[3] = system: PSMA-positive (LNCaP, CWR22R) human prostate cancer cells; assay: Fluorescent peptide binding to PSMA-positive prostate cancer cells (confocal microscopy); assay type: cell-based
Protocol: FIG. 5 depicts dimeric […] (SEQ ID NO:1) peptide binds selectively to PSMA-producing prostate cancer cells. Attached PSMA-positive (LNCaP, CWR22R) and PSMA-negative (PC-3, DU145) human prostate cancer were prelabeled with Orange Cell Tracker (Invitrogen) at 2.5 μM in RPMI for 30 mins. After washing with Hanks balanced salt solution, cells were incubated with FITC-labeled monomeric (50 μM) or dimeric (5 μM) […] (SEQ ID NO:1) peptide in 1% fetal calf serum containing media for 1 hr. Cells were washed 3 times with PBS and fixed with 1% Formalin for ½ hr at room temperature. Cells were visualized using Zeiss Meta 510 confocal microscope at 20× magnification. Top panels show orange cell tracker labeled cells (rhodamine filter set); middle panels show labeled peptide binding (FITC filter set); bottom panel show overlay of both panels.
Binding of […] (SEQ ID NO:1) peptides to PSMA-expressing cell lines—To analyze peptide binding to membrane bound PSMA, fluorescently labeled peptides were synthesized by coupling FITC to the C-terminus of either the monomeric or dimeric peptide. […] In contrast, cell binding of the dimeric […] (SEQ ID NO:1) peptide could be easily visualized at concentrations as low as 5 μM, FIG. 5. Labeled, dimeric peptide bound to a similar degree to both CWR22R and LNCAP.

His-PSMA [4] = target: T2, His-PSMA; details: substrate hydrolysis by PSMA, reference (21); cited from earlier work

T2 sequence (Q04609 44-750 limits assumed): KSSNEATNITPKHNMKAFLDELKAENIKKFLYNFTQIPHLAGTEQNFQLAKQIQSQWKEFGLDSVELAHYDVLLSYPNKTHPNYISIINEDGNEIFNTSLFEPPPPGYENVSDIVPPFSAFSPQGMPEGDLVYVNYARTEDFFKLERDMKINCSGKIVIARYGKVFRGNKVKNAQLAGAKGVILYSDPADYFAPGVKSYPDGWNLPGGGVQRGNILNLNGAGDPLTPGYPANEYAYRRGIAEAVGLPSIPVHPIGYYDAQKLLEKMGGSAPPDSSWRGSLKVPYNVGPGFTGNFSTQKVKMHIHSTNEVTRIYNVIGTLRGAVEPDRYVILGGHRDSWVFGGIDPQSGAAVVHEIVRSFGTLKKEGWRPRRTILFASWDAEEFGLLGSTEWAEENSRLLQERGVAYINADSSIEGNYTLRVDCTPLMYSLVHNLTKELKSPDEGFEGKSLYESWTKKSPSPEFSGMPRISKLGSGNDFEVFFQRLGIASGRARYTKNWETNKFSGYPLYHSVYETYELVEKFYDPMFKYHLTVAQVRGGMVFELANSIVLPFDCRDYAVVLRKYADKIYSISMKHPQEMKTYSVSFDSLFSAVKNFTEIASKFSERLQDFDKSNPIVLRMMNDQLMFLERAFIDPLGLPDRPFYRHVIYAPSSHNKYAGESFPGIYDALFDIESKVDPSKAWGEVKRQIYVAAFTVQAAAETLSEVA
T1 sequence (Q04609 44-750 limits assumed): as above
T3 sequence (Q04609 whole entry): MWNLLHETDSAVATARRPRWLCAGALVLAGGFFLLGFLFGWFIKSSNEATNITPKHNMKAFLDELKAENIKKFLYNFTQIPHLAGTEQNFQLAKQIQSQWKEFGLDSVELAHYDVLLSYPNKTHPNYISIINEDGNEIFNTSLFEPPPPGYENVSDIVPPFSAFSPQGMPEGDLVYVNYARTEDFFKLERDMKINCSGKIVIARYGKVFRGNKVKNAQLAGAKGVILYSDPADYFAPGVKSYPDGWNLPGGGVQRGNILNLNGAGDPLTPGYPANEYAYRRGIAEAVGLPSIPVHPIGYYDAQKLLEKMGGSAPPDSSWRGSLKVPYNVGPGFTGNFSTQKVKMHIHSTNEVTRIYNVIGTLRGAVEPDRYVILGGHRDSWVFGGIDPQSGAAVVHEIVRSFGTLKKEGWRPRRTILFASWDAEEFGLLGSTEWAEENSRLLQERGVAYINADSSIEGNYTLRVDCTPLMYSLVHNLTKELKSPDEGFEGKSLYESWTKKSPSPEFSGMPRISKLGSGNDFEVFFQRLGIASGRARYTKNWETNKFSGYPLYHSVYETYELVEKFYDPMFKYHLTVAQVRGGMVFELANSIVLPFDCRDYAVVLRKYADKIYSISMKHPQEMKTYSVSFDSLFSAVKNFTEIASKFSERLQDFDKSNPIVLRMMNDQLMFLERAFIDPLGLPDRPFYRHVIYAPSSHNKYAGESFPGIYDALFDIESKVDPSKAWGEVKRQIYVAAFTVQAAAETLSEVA

Compound: WQPDTAHHWATLK(Biotin)
binding to immobilized PSMA compared to BSA (PSMA): significantly higher binding to PSMA at peptide concentrations of 50 μM and 500 μM

PSMA inhibition of dimer relative to monomer (His-PSMA [1]): ~10 fold
Compound: CC(C)C[C@H](NC(=O)[C@@H](NC(=O)[C@H](C)NC(=O)[C@H](Cc1c[nH]c2ccccc12)NC(=O)[C@H](Cc1c[nH]cn1)NC(=O)[C@H](Cc1c[nH]cn1)NC(=O)[C@H](C)NC(=O)[C@@H](NC(=O)[C@H](CC(=O)O)NC(=O)[C@@H]1CCCN1C(=O)[C@H](CCC(N)=O)NC(=O)[C@@H](N)Cc1c[nH]c2ccccc12)[C@@H](C)O)[C@@H](C)O)C(=O)NCCCC[C@H](NC(=O)[C@H](CC(C)C)NC(=O)[C@@H](NC(=O)[C@H](C)NC(=O)[C@H](Cc1c[nH]c2ccccc12)NC(=O)[C@H](Cc1c[nH]cn1)NC(=O)[C@H](Cc1c[nH]cn1)NC(=O)[C@H](C)NC(=O)[C@@H](NC(=O)[C@H](CC(=O)O)NC(=O)[C@@H]1CCCN1C(=O)[C@H](CCC(N)=O)NC(=O)[C@@H](N)Cc1c[nH]c2ccccc12)[C@@H](C)O)[C@@H](C)O)C(=O)N[C@@H](CCCCNC(=O)CCCC[C@@H]1SC[C@@H]2NC(=O)N[C@@H]21)C(=O)O (I: H-WQPDTAHHWATLKK(Biotin)-OH / II: H-WQPDTAHHWATL; amide I:13-II:C; N-terminus assumed)

inhibition of PSMA in LNCaP cell lysates [2]: inhibited
Compound: WQPDTAHHWATL-OH

Compound: FITC-labeled monomeric WQPDTAHHWATL peptide: fluorescently labeled peptide made by coupling FITC to the C-terminus of the monomeric peptide (WQPDTAHHWATL-{FITC′})
cell binding above background autofluorescence ([3]; FITC-labeled peptide at 1, 5, 10, 50 μM): could not be observed at any of the tested concentrations
peptide concentration at which cell binding could be visualized ([3]; FITC-labeled peptide tested at 1, 5, 10, 50 μM, 1% fetal bovine serum media, 1 hr): > 50 µM

Compound: CC(=O)N[C@@H](CC(=O)O)C(=O)N[C@@H](CCC(=O)O)C(=O)O [^3H NAAG, N-acetyl-aspartyl-3H glutamate] (Ac-Asp-Glu-OH)
Km (His-PSMA [4]): 0.43 µM
kcat for PSMA (His-PSMA [4]): 0.6 s⁻¹

Compound: QMARIPKRLARHK-biotin [reference compound]
binding to immobilized PSMA compared to BSA (PSMA): no specific binding to immobilized PSMA compared to BSA
